Publication PMC3739763 (PLoS ONE, 2013)
Read-outs that look alike come from different tables or passages of the source.

Key:
[1] = parameters: method as in PMID 1643710, PMID 11721007; details: cited from earlier work
[2] = target: T1, Human serum albumin (HSA) (Homo sapiens, UniProt P02768); assay: Isothermal titration calorimetry (ITC), sequential model of two binding sites; details: for van't Hoff enthalpy: equation 12; for ΔCP (change in heat capacity): 25-37 °C
T1 construct: I (residues 1–195), II (196–383), III (384–585); purchased Sigma Aldrich A1887
T1 sequence (P02768 25-609): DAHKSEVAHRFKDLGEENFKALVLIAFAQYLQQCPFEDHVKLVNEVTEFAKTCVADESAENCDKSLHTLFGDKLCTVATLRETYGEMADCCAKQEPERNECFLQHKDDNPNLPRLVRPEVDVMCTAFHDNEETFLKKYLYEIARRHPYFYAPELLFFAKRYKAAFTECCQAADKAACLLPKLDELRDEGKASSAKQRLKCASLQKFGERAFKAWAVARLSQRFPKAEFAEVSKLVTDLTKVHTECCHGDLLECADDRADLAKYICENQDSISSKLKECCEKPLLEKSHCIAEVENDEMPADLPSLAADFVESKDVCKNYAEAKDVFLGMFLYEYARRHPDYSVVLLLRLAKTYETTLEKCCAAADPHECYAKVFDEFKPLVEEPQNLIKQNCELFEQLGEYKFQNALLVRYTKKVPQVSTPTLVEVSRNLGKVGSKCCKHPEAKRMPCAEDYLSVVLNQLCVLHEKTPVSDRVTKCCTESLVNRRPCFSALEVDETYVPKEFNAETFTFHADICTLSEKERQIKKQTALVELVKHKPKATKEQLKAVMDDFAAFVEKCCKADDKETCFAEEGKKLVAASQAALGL
Procedure: Prior to the titration experiment, all solutions were degassed properly on a thermovac. The 1.44 mL sample and reference cell of the calorimeter were loaded with HSA and 20 mM sodium phosphate buffer (pH 7.4), respectively. […] The reference power was set at 16 µcal s^−1. […] Heats of dilution for the ligand and protein were subtracted from the integrated data before curve fitting. The data were fitted and analyzed with a sequential model of two binding sites using Origin 7.0 provided with the MicroCal instrument. Association constant (K b) and standard enthalpy change (ΔH°) were directly obtained after fitting while ΔG° was calculated from equation 8. The ΔS ^o was calculated using the equation: [drawing 13] (10) and change in specific heat capacity can be calculated from the equation:
[drawing 14] (11) Further the standard van’t Hoff enthalpy [drawing 15] at each temperature was calculated using equation: [drawing 16] (12) here, K(T1) and K(T2) are the values of binding constant at temperatures T 1 and T 2 respectively.

[3] = target: T1, Human serum albumin (HSA); assay: Esterase-like activity of HSA toward p-NPA in presence of HA; assay type: biochemical
[4] = parameters: method as in PMID 12675874; details: cited from earlier work
[5] = target: T1, Human serum albumin (HSA); assay: Steady state fluorescence quenching of HSA by HA; assay type: binding; details: for KSV (Stern-Volmer quenching constant) / n (binding sites): pH 7.4, HSA 5 µM; for TΔS°: van't Hoff
Procedure: Fluorescence emission spectra were recorded in range of 300–400 nm on a Shimadzu 5301PC fluorescence spectrophotometer equipped with water circulator (Julabo Eyela) at excitation wavelength of 295 nm. Both the excitation and emission slits were set at 3 nm. […] Respective blanks were subtracted. […] Furthermore if a quencher, Q, form complex, Q n B, with protein B and have ‘n’ multiple (equivalent and independent) binding sites then quenching reaction is often represented as: [drawing 5] (2) and its binding constant (Kb ) is given by equation 3:[18]
[drawing 6] (3) If the total amount of protein (with and without bound Q) is [B o], then [drawing 7] (4) [drawing 8] (5) where [B] is the concentration of the unbound protein. The fluorescence intensity is proportional to the protein concentration as described below: [drawing 9] (6) then, relationship between the fluorescence intensity and unbound protein is expressed as:
[drawing 10] (7) So, if the formation of a nonfluorescent fluorophore–quencher complex occurs, then, the value of K b can be obtained by using equation 7.

[6] = target: T1, Human serum albumin (HSA); assay: Binding displacement measurement using site markers (fluorescence, Stern-Volmer); details: protein:marker 1:1
Procedure: Different site markers warfarin (WAR) for site I and diazepam (DIA) for site II [19], [20] were used for performing displacement experiments. […] The fluorescence emission spectra were recorded as mentioned in fluorescence measurements and the binding constant values of drug–protein–marker were evaluated using Stern–Volmer equation.

[7] = target: T1, Human serum albumin (HSA); assay: Differential scanning calorimetry (DSC) thermostability of HSA in presence of HA; assay type: binding
Procedure: The differential scanning calorimetric measurements were carried out using VP-DSC microcalorimeter (MicroCal, Northampton, MA). The buffer and protein solutions were degassed under mild vacuum prior to the experiment. Samples were prepared in 20 mM sodium phosphate buffer, pH 7.4. […] 1∶0, 1∶5, and 1∶10 were performed from 25 to 90°C at a scan rate of 0.5°C/min. Data were analyzed using Origin software provided with the instrument to obtain the temperature at the midpoint of the unfolding transition (T m) and calorimetric enthalpy (ΔH°).

van't Hoff enthalpy ([2]; 25 °C, high affinity site): -11.98 kcal/mol | van't Hoff enthalpy ([2]; 25 °C, low affinity site): -24.69 kcal/mol | ΔG° ([2]; High affinity site, 25 °C): -6.05 ± 0.10 kcal/mol | ΔH° ([2]; High affinity site, 25 °C): -4.41 ± 0.46 kcal/mol | TΔS° ([2]; High affinity site, 30 °C): 0.76 ± 0.06 kcal/mol | ΔG° ([2]; High affinity site, 30 °C): -5.94 ± 0.01 kcal/mol | ΔH° ([2]; High affinity site, 30 °C): -5.18 ± 0.07 kcal/mol | TΔS° ([2]; High affinity site, 37 °C): -0.20 ± 0.01 kcal/mol | ΔG° ([2]; High affinity site, 37 °C): -5.93 ± 0.02 kcal/mol | ΔH° ([2]; High affinity site, 37 °C): -6.14 ± 0.15 kcal/mol | TΔS° ([2]; Low affinity site, 25 °C): -2.88 ± 0.40 kcal/mol | ΔG° ([2]; Low affinity site, 25 °C): -4.69 ± 0.10 kcal/mol | ΔH° ([2]; Low affinity site, 25 °C): -7.58 ± 0.96 kcal/mol | TΔS° ([2]; Low affinity site, 30 °C): -5.39 ± 0.35 kcal/mol | ΔG° ([2]; Low affinity site, 30 °C): -4.35 ± 0.02 kcal/mol | ΔH° ([2]; Low affinity site, 30 °C): -9.74 ± 0.34 kcal/mol | TΔS° ([2]; Low affinity site, 37 °C): -6.69 ± 0.36 kcal/mol | ΔG° ([2]; Low affinity site, 37 °C): -4.41 ± 0.03 kcal/mol | ΔH° ([2]; Low affinity site, 37 °C): -11.11 ± 0.69 kcal/mol | K b (order of magnitude) ([2]; high affinity site): ~10^4 | ΔCP (change in heat capacity) ([2]; high affinity site): −0.14±0.11 kcal mol^−1°C^−1 | K b (order of magnitude) ([2]; low affinity site): ~10^3 | ΔCP (change in heat capacity) ([2]; low affinity site): −0.28±0.24 kcal mol^−1°C^−1 | Vmax for hydrolysis of p-NPA by HSA ([3]; HSA:HA 1∶0.5, HSA 15 µM, 25 °C): 0.16 ± 0.02 µM/s | Vmax for hydrolysis of p-NPA by HSA ([3]; HSA:HA 1∶1, HSA 15 µM, 25 °C): 0.16 ± 0.01 µM/s | Vmax for hydrolysis of p-NPA by HSA ([3]; HSA:HA 1∶2, HSA 15 µM, 25 °C): 0.16 ± 0.02 µM/s | Vmax for hydrolysis of p-NPA by HSA ([3]; HSA:HA 1∶3, HSA 15 µM, 25 °C): 0.16 ± 0.01 µM/s | Ki ([3]; competitive, substrate p-NPA, 25 °C, read-out: K i (inhibitor constant) for esterase-like activity of HSA): 21.7 µM | Mode of inhibition of esterase-like activity of HSA ([3]; substrate p-NPA): competitively | k q (bimolecular rate constant) ([5]; 25 °C): (1.36±0.06 ) ×10^12 M^−1 s^−1 | ΔG° ([5]; 25 °C): -5.21 ± 0.02 kcal/mol | KSV (Stern-Volmer quenching constant) ([5]; 25 °C): (7.80±0.36) ×10^3 M^−1 | n (binding sites) ([5]; 25 °C): 0.98±0.02 | TΔS° ([5]; 25 °C): -23.48 ± 0.24 kcal/mol | k q (bimolecular rate constant) ([5]; 30 °C): (5.77±0.03 ) ×10^11 M^−1 s^−1 | ΔG° ([5]; 30 °C): -4.88 ± 0.06 kcal/mol | KSV (Stern-Volmer quenching constant) ([5]; 30 °C): (3.30±0.02) ×10^3 M^−1 | n (binding sites) ([5]; 30 °C): 0.99±0.01 | TΔS° ([5]; 30 °C): -23.88 ± 0.24 kcal/mol | k q (bimolecular rate constant) ([5]; 37 °C): (2.29±0.01 ) ×10^11 M^−1 s^−1 | ΔG° ([5]; 37 °C): -4.28 ± 0.01 kcal/mol | KSV (Stern-Volmer quenching constant) ([5]; 37 °C): (1.31±0.08) ×10^3 M^−1 | n (binding sites) ([5]; 37 °C): 0.97±0.02 | TΔS° ([5]; 37 °C): -24.43 ± 0.25 kcal/mol | K b (order of magnitude) ([5]; spectroscopic results, single site): ~10^3 | K sv of HSA-HA in presence of site marker ([6]; in presence of DIA (site II marker)): (2.03±0.03)× 10^3 M^−1 | K sv of HSA-HA in presence of site marker ([6]; in presence of WAR (site I marker)): (2.74±0.04)×10^3 M^−1 | Tm of first sub-transition of HSA (head drawing C00030) ([7]; HSA:HA 1∶5, HSA 18 µM): 57.25±0.01 °C | Tm of second sub-transition of HSA (head drawing C00031) ([7]; HSA:HA 1∶5, HSA 18 µM): 62.51±0.09 °C | Tm of third sub-transition of HSA (head drawing C00032) ([7]; HSA:HA 1∶5, HSA 18 µM): 73.87±0.04 °C | ΔH° of first sub-transition (head drawing C00033) ([7]; HSA:HA 1∶5, HSA 18 µM): 54.41 ± 0.10 kcal/mol | ΔH° of second sub-transition (head drawing C00034) ([7]; HSA:HA 1∶5, HSA 18 µM): 56.13 ± 0.12 kcal/mol | ΔH° of third sub-transition (head drawing C00035) ([7]; HSA:HA 1∶5, HSA 18 µM): 13.92 ± 0.07 kcal/mol | Tm of first sub-transition of HSA (head drawing C00030) ([7]; HSA:HA 1∶10, HSA 18 µM): 58.36±0.08 °C | Tm of second sub-transition of HSA (head drawing C00031) ([7]; HSA:HA 1∶10, HSA 18 µM): 63.83±0.02 °C | Tm of third sub-transition of HSA (head drawing C00032) ([7]; HSA:HA 1∶10, HSA 18 µM): 73.96±0.03 °C | ΔH° of first sub-transition (head drawing C00033) ([7]; HSA:HA 1∶10, HSA 18 µM): 68.47 ± 0.80 kcal/mol | ΔH° of second sub-transition (head drawing C00034) ([7]; HSA:HA 1∶10, HSA 18 µM): 57.37 ± 0.60 kcal/mol | ΔH° of third sub-transition (head drawing C00035) ([7]; HSA:HA 1∶10, HSA 18 µM): 13.90 ± 0.09 kcal/mol
Compound: O=C(O)CNC(=O)c1ccccc1 [HA, hippuric acid]
elimination of HA through hemodialysis [1]: 64% | concentration of HA ([4]; healthy individual): less than 5 mg/L | concentration of HA ([4]; patients with end-stage renal disease): higher than 247±112 mg/L
